Several values for one entry are separate records, joined by “and”; a condition that tells them apart may be missing. Identical values can stand only once. Like-named read-outs stand apart in the source and are kept apart here.
Columns and labels:
[1] = SPR membrane partition on L1 sensor chip, deposited POPC SUV (steady-state and dissociation models); assay type: physicochemical; conditions: 10 mM HEPES, 150 mM NaCl, pH 7.4, 25 °C; for Kp (Steady-state Model) / σ (molar lipid:solute ratio at membrane saturation, Steady-state Model): SPR Biacore X100, L1 chip, association 200 s at 5 μL/min, ±SD, three independent replicates; for Kp (Steady-state Model): POPC SUV (50 nm extrusion), 0.25-700 μM solute, equation (S22) fitted to RUS/RUL vs [S]W, full concentration range; for σ (molar lipid:solute ratio at membrane saturation, Steady-state Model) / Kp (linear partition model, equation (S23)): POPC SUV; for σ (molar lipid:solute ratio at membrane saturation, Steady-state Model): equation (S22); for Kp (linear partition model, equation (S23)): SPR, L1 chip, equation (S23) fitted to the low-concentration linear region only
Procedure: Lyophilized ENF and KTP were solubilized in 10 mM HEPES, 150 mM NaCl, pH 7.4 buffer to a 1 mg/mL stock solution concentration. Purified F63 stock solutions (~1 mg/mL) were prepared in the same buffer. Lyophilized HRC4 was first solubilized in DMSO to 40 mg/mL, then diluted in 10 mM HEPES, 150 mM NaCl, pH 7.4 buffer for the experiments. The final DMSO content was maintained at 2% (v/v) in all HRC4 experiments. ENF, KTP and HRC4 stock solutions were sonicated in an ultrasonic bath for a 10 min period.
Small unilamellar vesicles (SUV) suspensions were prepared as described before. Briefly, the lipid mixture was dissolved in chloroform in a round bottom flask. Chloroform was evaporated under a constant nitrogen flow. The resulting lipid film was dried in vacuum, overnight. A multilamellar vesicle suspension (MLV) was obtained after lipid film rehydration with 10 mM HEPES, 150 mM NaCl, pH 7.4 buffer and a series of 10 freeze/thaw cycles. MLV suspensions were extruded through a 50 nm track-etched polycarbonate membrane from Whatman/GE Healthcare (Maidstone, United Kingdom). Extrusion was performed in a LiposoFast-Basic plus Stabilizer setup from Avestin (Mannheim, Germany). POPC, POPC:Chol (2:1), POPC:Chol:SM […] and POPC:DPPC (1:1) mixtures were prepared. SUV hydrodynamic diameter (DH) and sample polydispersity were characterized through dynamic light scattering (DLS, Supplementary Fig. S1).
SPR experiments were carried out in a Biacore X100 apparatus from GE Healthcare. Temperature was set at 25 °C for all experiments. A 10 mM HEPES, 150 mM NaCl, pH 7.4 solution was used as running buffer for F63, ENF and KTP experiments. Alternatively, 10 mM HEPES, 150 mM NaCl, pH 7.4 containing 2% (v/v) DMSO was used for HRC4 experiments. The flow system was primed three times before initiating an experiment. The L1 sensor chip was used in all experiments. The sensor chip surface was rinsed with three injections of 20 mM CHAPS before SUV deposition. 1 mM lipid SUV samples were injected over the L1 sensor chip for 2400 s, at a 2 μL/min flow speed. Typical RU values for POPC, POPC:Chol (2:1), and POPC:Chol:SM (1:1:1) SUV depositions were ~8000, ~10000 and ~10500, respectively. Loose vesicles were removed with a 36 s injection of 10 mM NaOH at 50 μL/min. F63, ENF and KTP at defined concentrations (between 0.25 and 700 μM) were injected over pre-formed lipid vesicle-coated surfaces at 5 μL/min, for a total of 200 s (association phase). Samples were also injected at 30 μL/min to confirm the absence of mass transfer effects. Solutes were allowed to dissociate for 800 s. L1 sensor chip surface regeneration was performed with sequential injections of 20 mM CHAPS (5 μL/min for 60 s), 0.5% (w/v) SDS (5 μL/min for 60 s), 10 mM NaOH containing 20% (v/v) methanol (50 μL/min for 36 s) and 10 mM NaOH (50 μL/min for 36 s). Baseline response values were compared before and after each experiment to evaluate the effectiveness of the surface regeneration.
Raw SPR sensorgram data were collected for both lipid deposition and solute binding. SUV deposition response values were collected from sensorgrams upon reaching a stable response. For each studied molecule, association steady-state response values were collected from individual sensorgrams at t = 200 s. Dissociation response data were collected between 200 and 1000 s of each sensorgram.
The steady-state model is a mathematical approach to rigorously quantify solute membrane partition using current SPR lipid bilayer-solute association response data. The partition formalism of equation (S22), can be directly fitted to RUS/RUL vs [S]W data sets to retrieve Kp and σ values. While σ values are very important for specific applications (membrane-targeting antibiotics, for instance[25]), Kp is a fundamental membrane interaction parameter studied for both endogenous and therapeutic molecules. […]

[2] = partition constant towards POPC membranes, fluorescence spectroscopy, 100 nm-diameter LUV, ±SD, cited from earlier work
[3] = data previously obtained; ref [25]; cited from earlier work
Source text: If only Kp is desired, a simplified version of the steady-state model (equation (S23)) can be applied to the linear region in each partition plot (Fig. 2, right panel insets). We applied the steady-state model in full to determine σ for each molecule in addition to Kp. […] The σ of ENF and KTP were, respectively, 50 and 69.

Row | Compound | Kp (Steady-state Model) [1] | σ (molar lipid:solute ratio at membrane saturation, Steady-state Model) [1] | Kp (linear partition model, equation (S23)) [1] | Kp (Literature) ([2]; ref [27]) | Kp (Literature) ([2]; ref [26]) | σ (lipid:solute ratio at membrane saturation) [3]
1 | N=C(N)NCCC[C@H](NC(=O)[C@@H](N)Cc1ccc(O)cc1)C(=O)O [KTP, kyotorphin] | 0.10 × 10^3 and 0.10 (±0.01) × 10^3 | ~69 and 69 and 69.0 (±6.3) | 0.06 × 10^3 | 0.66 × 10^3 and 0.66 (±0.23) × 10^3 | – | –
2 | Enfuvirtide | 6.41 × 10^3 and 6.41 (±0.50) × 10^3 | ~50 and 50 and 50.4 (±2.0) | 5.29 × 10^3 | – | 3.20 × 10^3 and 3.20 (±0.20) × 10^3 | –
3 | omiganan | – | – | – | – | – | 66
